Experimental data from ChEMBL document CHEMBL4431372, “Optimization of a Fragment-Based Screening Hit toward Potent DOT1L Inhibitors Interacting in an Induced Binding Pocket” (ACS Med Chem Lett, 2016).

target: T1, Histone-lysine N-methyltransferase, H3 lysine-79 specific (Homo sapiens, UniProt Q8TEK3); assay: Inhibition of human DOTL1 (2 to 416 residues)-mediated methylation of nucleosome preincubated for 30 mins followed by addition of S-[methyl-3H-] adenosyl-L-methionine and nucleosome measured after 180 mins by scintillation proximity assay
T1 sequence (Q8TEK3 whole entry, the tested form may be a part): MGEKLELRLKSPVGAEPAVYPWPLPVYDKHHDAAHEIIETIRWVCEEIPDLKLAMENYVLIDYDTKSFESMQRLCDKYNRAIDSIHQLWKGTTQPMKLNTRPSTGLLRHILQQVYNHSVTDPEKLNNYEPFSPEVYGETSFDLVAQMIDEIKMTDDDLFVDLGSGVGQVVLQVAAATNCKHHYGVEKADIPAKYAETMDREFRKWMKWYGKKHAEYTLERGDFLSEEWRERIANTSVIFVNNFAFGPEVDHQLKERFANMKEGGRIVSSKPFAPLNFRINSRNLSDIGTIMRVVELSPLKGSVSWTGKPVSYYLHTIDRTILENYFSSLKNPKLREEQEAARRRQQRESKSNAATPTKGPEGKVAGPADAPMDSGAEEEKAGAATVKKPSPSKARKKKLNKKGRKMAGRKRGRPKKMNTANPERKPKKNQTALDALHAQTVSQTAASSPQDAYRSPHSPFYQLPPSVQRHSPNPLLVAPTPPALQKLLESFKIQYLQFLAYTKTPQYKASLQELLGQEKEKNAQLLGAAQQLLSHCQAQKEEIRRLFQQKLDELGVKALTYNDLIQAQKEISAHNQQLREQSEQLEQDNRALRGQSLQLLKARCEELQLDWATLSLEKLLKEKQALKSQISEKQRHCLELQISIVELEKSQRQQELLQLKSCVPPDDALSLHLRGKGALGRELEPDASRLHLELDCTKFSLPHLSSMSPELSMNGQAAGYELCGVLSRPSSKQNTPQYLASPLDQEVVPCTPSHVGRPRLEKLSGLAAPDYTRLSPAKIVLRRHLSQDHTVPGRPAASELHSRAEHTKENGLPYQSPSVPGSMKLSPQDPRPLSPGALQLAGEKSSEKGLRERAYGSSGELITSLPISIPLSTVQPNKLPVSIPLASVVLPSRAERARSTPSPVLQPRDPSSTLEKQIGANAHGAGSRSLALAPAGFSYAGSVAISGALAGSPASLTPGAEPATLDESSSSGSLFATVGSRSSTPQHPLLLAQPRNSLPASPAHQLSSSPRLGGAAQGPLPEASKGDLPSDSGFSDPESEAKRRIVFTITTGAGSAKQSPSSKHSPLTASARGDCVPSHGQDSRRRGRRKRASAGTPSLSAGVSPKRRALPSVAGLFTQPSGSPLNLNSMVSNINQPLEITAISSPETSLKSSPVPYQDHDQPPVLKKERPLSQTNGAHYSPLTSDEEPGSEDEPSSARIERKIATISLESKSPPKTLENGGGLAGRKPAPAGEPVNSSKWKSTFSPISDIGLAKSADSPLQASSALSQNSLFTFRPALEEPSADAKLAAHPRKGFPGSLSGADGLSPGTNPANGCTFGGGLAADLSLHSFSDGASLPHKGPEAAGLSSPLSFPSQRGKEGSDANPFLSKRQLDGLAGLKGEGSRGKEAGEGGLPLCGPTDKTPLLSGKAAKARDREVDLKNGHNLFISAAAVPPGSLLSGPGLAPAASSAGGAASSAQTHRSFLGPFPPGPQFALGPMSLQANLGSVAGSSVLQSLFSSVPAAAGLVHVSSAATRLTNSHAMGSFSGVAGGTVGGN

Going from `CNC(=O)c1cc(C(=O)c2c(Cl)cccc2Cl)c[nH]1` to `CC(=O)Nc1cncc(-c2cc(C(=O)c3c(Cl)cccc3Cl)c[nH]2)c1`, the IC50 falls from 320 µM to 4.3 µM (74-fold).

First: CN(c1ccc2ncccc2c1)c1c(Cl)cccc1Cl
Second: COc1ccnc2ccc(N(C)c3c(Cl)cccc3Cl)cc12
The IC50 of the first is 2.5-fold higher: 98 µM for the first, 39 µM for the second. The second is the more potent here.

Compared with `Cc1ccc(C#CCN(c2ccc3ncnc(N)c3c2)c2c(Cl)cccc2Cl)nc1`, `C#CCN(c1ccc2ncnc(N)c2c1)c1c(Cl)cccc1Cl` is 20-fold higher in IC50: 0.047 µM for the first, 0.92 µM for the second.

Compared with `Cn1cnc2ccc(N(CC#Cc3cccnc3)c3c(Cl)cccc3Cl)cc2c1=O`, `Cc1ncc(C#CCN(c2ccc3ncn(C)c(=O)c3c2)c2c(Cl)cccc2Cl)cn1` is 9.4-fold lower in IC50: 0.84 µM for the first, 0.089 µM for the second.

First: O=C(c1ccc2ncccc2c1)c1c(Cl)cccc1Cl
Second: Nc1ncnc2ccc(N(CC#CC(O)c3nccn3CCO)c3c(Cl)cccc3Cl)cc12 (stereo unspecified)
The IC50 of the first is 9900-fold higher: 139 µM for the first, 0.014 µM for the second.

target: T1, Histone-lysine N-methyltransferase, H3 lysine-79 specific; assay: Binding affinity to biotinylated Avi tagged human DoT1L (2 to 416 residues) by SPR analysis

`CNC(=O)c1cc(C(=O)c2c(Cl)cccc2Cl)c[nH]1` was tested, and the Kd was 50 µM.
